These results are taken from the NIST ThermoML archive (doi:10.1021/je5000605).

Numbers after ± are expanded uncertainties.

For the data set the following is noted: 293.15 K; 101.33 kPa; Crystal; Pycnometric method.

Regarding `C=CC1=C(C(=O)O)N2C(=O)[C@@H](NC(=O)/C(=N\OCC(=O)O)c3csc(N)n3)[C@H]2SC1.O.O.O` [cefixime trihydrate], the molar volume was 0.0004982 ± 1e-05 m3/mol.
